Laboratory results taken from patent US10065945B2, “Isoquinoline derivatives as MGAT2 inhibitors” (Merck Sharp & Dohme Corp., priority 2014, dated 2018).

Molecular target: MGAT2 Human (Homo sapiens (Human), UniProt Q3SYC2)
Assay: MGAT2 Human IC50
Format: biochemical

MGAT2 Human, sequence (Q3SYC2 whole entry): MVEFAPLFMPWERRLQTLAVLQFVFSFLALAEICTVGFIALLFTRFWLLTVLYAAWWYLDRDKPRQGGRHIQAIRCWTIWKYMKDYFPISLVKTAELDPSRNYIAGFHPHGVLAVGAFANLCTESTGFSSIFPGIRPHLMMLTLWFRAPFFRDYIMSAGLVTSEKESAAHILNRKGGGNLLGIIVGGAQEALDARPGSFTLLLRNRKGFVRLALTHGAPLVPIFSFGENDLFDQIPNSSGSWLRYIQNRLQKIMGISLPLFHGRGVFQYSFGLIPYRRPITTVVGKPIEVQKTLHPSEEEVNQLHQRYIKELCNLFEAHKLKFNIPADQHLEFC

| IC50 [nM] | SMILES |
| --- | --- |
| 41 | Cc1c(NS(=O)(=O)c2ccc3c(c2)CN(C(=O)c2ccc(OCC(F)(F)F)nc2)CC3)noc1C(C)(C)C [Example 27, N-(5-(tert-butyl)-4-methylisoxazol-3-yl)-2-(6-(2,2,2-trifluoroethoxy)nicotinoyl)-1,2,3,4-tetrahydroisoquinoline-7-sulfonamide] |
| 18 | C[C@H](c1ccc(OCC(F)(F)F)nc1)N1CCc2ccc(S(=O)(=O)Nc3cc(C(C)(C)F)on3)cc2C1 [Example 19, (R)—N-(5-(2-fluoropropan-2-yl)isoxazol-3-yl)-2-(1-(6-(2,2,2-trifluoroethoxy)pyridin-3-yl)ethyl)-1,2,3,4-tetrahydroisoquinoline-7-sulfonamide] |
| 23 | C[C@H](c1ccc(OCC(F)(F)F)nc1)N1CCc2ccc(S(=O)(=O)Nc3cc(C(C)(C)O)on3)cc2C1 [Example 18, (R)—N-(5-(2-hydroxypropan-2-yl)isoxazol-3-yl)-2-(1-(6-(2,2,2-trifluoroethoxy)pyridin-3-yl)ethyl)-1,2,3,4-tetrahydroisoquinoline-7-sulfonamide] |
| 1.6 | CCCc1ccc([C@@H](C)N2CCc3ccc(S(=O)(=O)Nc4noc(C(C)(C)C)c4Br)cc3C2)cn1 [Example 43, (R)—N-(4-bromo-5-(tert-butyl)isoxazol-3-yl)-2-(1-(6-propylpyridin-3-yl)ethyl)-1,2,3,4-tetrahydroisoquinoline-7-sulfonamide] |
| 7.3 | CCCc1cnc(NS(=O)(=O)c2ccc3c(c2)CN([C@H](C)c2ccc(OCC(F)(F)F)nc2)CC3)cn1 [Example 45, 7-(N-(5-propylpyrazin-2-yl)sulfamoyl)-2-((R)-1-(6-(2,2,2-trifluoroethoxy)pyridin-3-yl)ethyl)-1,2,3,4-tetrahydroisoquinolin-2-ium 2,2,2-trifluoroacetate] |
| 8.3 | CCOc1cnc([C@@H](C)N2CCc3ccc(S(=O)(=O)Nc4noc(C(C)(C)C)c4Cl)cc3C2)cn1 [Example 35, (R)—N-(5-(tert-Butyl)-4-chloroisoxazol-3-yl)-2-(1-(5-ethoxypyrazin-2-yl)ethyl)-1,2,3,4-tetrahydroisoquinoline-7-sulfonamide] |
| 5.7 | C[C@H](c1cc(F)cc(F)c1)N1CCc2ccc(S(=O)(=O)Nc3nc(C(=O)N(C)C)no3)cc2C1 [Example 56] |
| 11 | C[C@H](c1ccc(OCC(F)(F)F)nc1)N1CCc2ccc(S(=O)(=O)Nc3cc(C(C)(C)C)on3)cc2C1 [Example 9, (R)—N-(5-(tert-butyl)isoxazol-3-yl)-2-(1-(6-(2,2,2-trifluoroethoxy)pyridin-3-yl)ethyl)-1,2,3,4-tetrahydroisoquinoline-7-sulfonamide] |
| 9.5 | Cc1c(NS(=O)(=O)c2ccc3c(c2)CN([C@H](C)c2ccc(OCC(F)(F)F)cc2)CC3)noc1C(C)(C)C [Example 29, 7-(N-(5-(tert-butyl)-4-methylisoxazol-3-yl)sulfamoyl)-2-((R)-1-(4-(2,2,2-trifluoroethoxy)phenyl)ethyl)-1,2,3,4-tetrahydroisoquinolin-2-ium 2,2,2-trifluoroacetate] |
| 16 | CC(C)(C)c1onc(NS(=O)(=O)c2ccc3c(c2)CN(Cc2ccc(OCC(F)(F)F)nc2)CC3)c1F [Example 16, N-(5-(tert-butyl)-4-fluoroisoxazol-3-yl)-2-((6-(2,2,2-trifluoroethoxy)pyridin-3-yl)methyl)-1,2,3,4-tetrahydroisoquinoline-7-sulfonamide] |
| 14 | C[C@H](c1cnc(OCC(F)(F)F)nc1)N1CCc2ccc(S(=O)(=O)Nc3cc(C(C)(C)C)on3)cc2C1 [Example 12, (R)—N-(5-(tert-butyl)isoxazol-3-yl)-2-(1-(2-(2,2,2-trifluoroethoxy)pyrimidin-5-yl)ethyl)-1,2,3,4-tetrahydroisoquinoline-7-sulfonamide] |
| 12.7 | CCc1cnc(NS(=O)(=O)c2ccc3c(c2)CN([C@H](C)c2ccc(OCC(F)F)nc2)CC3)cn1 [Example 46, 2-((R)-1-(6-(2,2-difluoroethoxy)pyridin-3-yl)ethyl)-7-(N-(5-ethylpyrazin-2-yl)sulfamoyl)-1,2,3,4-tetrahydroisoquinolin-2-ium 2,2,2-trifluoroacetate] |
| 11 | CCCc1c(NS(=O)(=O)c2ccc3c(c2)CN(Cc2ccc(CC)nc2)CC3)noc1C(C)(C)C [Example 39, N-(5-(tert-butyl)-4-propylisoxazol-3-yl)-2-((6-ethylpyridin-3-yl)methyl)-1,2,3,4-tetrahydroisoquinoline-7-sulfonamide] |
| 6.8 | CCCc1ccc(CN2CCc3ccc(S(=O)(=O)Nc4noc(C(C)(C)C)c4Br)cc3C2)cn1 [Example 41, N-(4-bromo-5-(tert-butyl)isoxazol-3-yl)-2-((6-propylpyridin-3-yl)methyl)-1,2,3,4-tetrahydroisoquinoline-7-sulfonamide] |
| 4.5 | Cc1c(NS(=O)(=O)c2ccc3c(c2)CN([C@H](C)c2ccc(OCC(F)(F)F)nc2)CC3)noc1C(C)(C)C [Example 5, (R)—N-(5-(tert-butyl)-4-methylisoxazol-3-yl)-2-(1-(6-(2,2,2-trifluoroethoxy)pyridin-3-yl)ethyl)-1,2,3,4-tetrahydroisoquinoline-7-sulfonamide] |
| 19.8 | C[C@H](c1ccc(OCC(F)(F)F)nc1)N1CCc2ccc(S(=O)(=O)Nc3noc(C(C)(C)C)c3CO)cc2C1 [Example 32, 7-(N-(5-(tert-butyl)-4-(hydroxymethyl)isoxazol-3-yl)sulfamoyl)-2-((R)-1-(6-(2,2,2-trifluoroethoxy)pyridin-3-yl)ethyl)-1,2,3,4-tetrahydroisoquinolin-2-ium 2,2,2-trifluoroacetate] |
| 11 | CCSc1ncc([C@@H](C)N2CCc3ccc(S(=O)(=O)Nc4cc(C(C)(C)C)on4)cc3C2)cn1 [Example 4, (R)—N-(5-(tert-butyl)isoxazol-3-yl)-2-(1-(2-(ethylthio)pyrimidin-5-yl)ethyl)-1,2,3,4-tetrahydroisoquinoline-7-sulfonamide] |
| 11 | Cc1c(NS(=O)(=O)c2ccc3c(c2)CN(Cc2ccc(OCC(F)(F)F)nc2)CC3)noc1C(C)(C)C [Example 15, N-(5-(tert-butyl)-4-methylisoxazol-3-yl)-2-((6-(2,2,2-trifluoroethoxy)pyridin-3-yl)methyl)-1,2,3,4-tetrahydroisoquinoline-7-sulfonamide] |
| 6 | CCCc1cnc(NS(=O)(=O)c2ccc3c(c2)CN([C@H](C)c2cc(F)cc(F)c2)CC3)cn1 [Example 38, (R)-2-(1-(3,5-difluorophenyl)ethyl)-N-(5-propylpyrazin-2-yl)-1,2,3,4-tetrahydroisoquinoline-7-sulfonamide] |
| 6 | C[C@H](c1cc(F)cc(F)c1F)N1CCc2ccc(S(=O)(=O)Nc3cc(C(C)(C)C)on3)cc2C1 [Example 2, (R)—N-(5-(tert-butyl)isoxazol-3-yl)-2-(1-(2,3,5-trifluorophenyl)ethyl)-1,2,3,4-tetrahydroisoquinoline-7-sulfonamide] |
| 16 | C[C@H](c1ccc(OCC(F)(F)F)nc1)N1CCc2ccc(S(=O)(=O)Nc3noc(C(C)(C)C)c3Cl)cc2C1 [Example 13, (R)—N-(5-(tert-butyl)-4-chloroisoxazol-3-yl)-2-(1-(6-(2,2,2-trifluoroethoxy)pyridin-3-yl)ethyl)-1,2,3,4-tetrahydroisoquinoline-7-sulfonamide] |
| 9.2 | C[C@H](c1ccc(OCC(F)(F)F)nc1)N1CCc2ccc(S(=O)(=O)Nc3noc(-c4ccccc4)n3)cc2C1 [Example 6] |
| 21.3 | COCCOc1ccc([C@@H](C)N2CCc3ccc(S(=O)(=O)Nc4cnc(C5CC5)cn4)cc3C2)cn1 [Example 48, 7-(N-(5-cyclopropylpyrazin-2-yl)sulfamoyl)-2-((R)-1-(6-(2-methoxyethoxy)pyridin-3-yl)ethyl)-1,2,3,4-tetrahydroisoquinolin-2-ium 2,2,2-trifluoroacetate] |
| 24 | Cc1onc(NS(=O)(=O)c2ccc3c(c2)CN([C@H](C)c2ccc(OCC(F)(F)F)nc2)CC3)c1-c1cnn(C)c1 [Example 17, (R)—N-(5-methyl-4-(1-methyl-1H-pyrazol-4-yl)isoxazol-3-yl)-2-(1-(6-(2,2,2-trifluoroethoxy)pyridin-3-yl)ethyl)-1,2,3,4-tetrahydroisoquinoline-7-sulfonamide] |
| 3.8 | C[C@H](c1ccc(OCC(F)(F)F)nc1)N1CCc2ccc(S(=O)(=O)Nc3ccc(C(C)(C)C)nn3)cc2C1 [Example 50, 7-(N-(6-(tert-butyl)pyridazin-3-yl)sulfamoyl)-2-((R)-1-(6-(2,2,2-trifluoroethoxy)pyridin-3-yl)ethyl)-1,2,3,4-tetrahydroisoquinolin-2-ium 2,2,2-trifluoroacetate] |
| 8.1 | CCc1noc(NS(=O)(=O)c2ccc3c(c2)CN([C@H](C)c2ccc(OCC(F)(F)F)nc2)CC3)n1 [Example 7] |
| 9 | C[C@H](c1cccc(Cl)c1)N1CCc2ccc(S(=O)(=O)Nc3cc(C(C)(C)C)on3)cc2C1 [Example 1, (R)—N-(5-(tert-butyl)isoxazol-3-yl)-2-(1-(3-chlorophenyl)ethyl)-1,2,3,4-tetrahydroisoquinoline-7-sulfonamide] |
| 8.2 | CCc1ccc([C@@H](C)N2CCc3ccc(S(=O)(=O)Nc4noc(C(C)(C)C)c4C)cc3C2)cn1 [Example 42, (R)—N-(5-(tert-butyl)-4-methylisoxazol-3-yl)-2-(1-(6-ethylpyridin-3-yl)ethyl)-1,2,3,4-tetrahydroisoquinoline-7-sulfonamide] |
| 20 | C[C@H](c1ccc(OCC2CC(F)(F)C2)nc1)N1CCc2ccc(S(=O)(=O)Nc3noc(C4CC4)n3)cc2C1 [Example 26, (R)-5-cyclopropyl-3-(2-(1-(6-((3,3-difluorocyclobutyl)methoxy)pyridin-3-yl)ethyl)-1,2,3,4-tetrahydroisoquinoline-7-sulfonamido)-1,2,4-oxadiazol-2-ium 2,2,2-trifluoroacetate] |
| 19.7 | C[C@H](c1cnc(OCC(F)F)cn1)N1CCc2ccc(S(=O)(=O)Nc3noc(C4CC4)n3)cc2C1 [Example 24, (R)-5-cyclopropyl-3-(2-(1-(5-(2,2-difluoroethoxy)pyrazin-2-yl)ethyl)-1,2,3,4-tetrahydroisoquinoline-7-sulfonamido)-1,2,4-oxadiazol-2-ium 2,2,2-trifluoroacetate] |
